# Measured values reported in paper PMC9898036, “VIP152 is a selective CDK9 inhibitor with pre-clinical in vitro and in vivo efficacy in chronic lymphocytic leukemia” (Leukemia, 2022).
# What was measured:
# CIT = CIT (Homo sapiens, UniProt O14578); assay: KINOMEscan: CIT; type: binding; conditions: 1000 nM, read-out: Percent Control
# ULK2 = ULK2 (Homo sapiens, UniProt Q8IYT8); assay: KINOMEscan: ULK2; type: binding; conditions: 100 nM, read-out: Percent Control
# [1] = tested on: primary CLL samples with human stromal cell line (HS-5) co-culture; assay: Annexin V/PI flow cytometry, four-hour treatment with washout, HS-5 stromal co-culture; type: cell-based; conditions: relapse/refractory samples; four-hour exposure, after 24 h
# Adenosine A2A = Adenosine A2A (Homo sapiens, UniProt P29274); assay: Eurofins Diversity Panel; type: binding; conditions: hum, Conc. 10 μM
# MAP4K4 = MAP4K4 (Homo sapiens, UniProt O95819); assay: KINOMEscan: MAP4K4; type: binding; conditions: 1000 nM, read-out: Percent Control
# FES = FES (Homo sapiens, UniProt P07332); assay: KINOMEscan: FES; type: binding; conditions: 1000 nM, read-out: Percent Control
# PFPK5(P.falciparum) = PFPK5(P.falciparum) (Plasmodium falciparum, UniProt P61075); assay: DiscoverX KINOMEscan kinase profiling; type: binding; conditions: kinase PFPK5(P.falciparum) (Entrez MAL13P1.279); compound concentration 1000 nM; read-out: Percent Control
# Chain of PFPK5(P.falciparum) (P61075 whole entry): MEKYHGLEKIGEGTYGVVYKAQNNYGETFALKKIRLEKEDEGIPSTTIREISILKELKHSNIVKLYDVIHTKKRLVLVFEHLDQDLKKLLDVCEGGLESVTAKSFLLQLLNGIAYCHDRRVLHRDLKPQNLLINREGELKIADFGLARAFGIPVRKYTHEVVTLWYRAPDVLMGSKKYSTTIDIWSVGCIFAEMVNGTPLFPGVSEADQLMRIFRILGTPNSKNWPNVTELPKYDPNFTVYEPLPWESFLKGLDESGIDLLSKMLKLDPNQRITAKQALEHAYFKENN
# human kinome [2] = biological target: human kinome (Homo sapiens, UniProt Q9NRM7); assay: DiscoverX KINOMEscan kinase profiling (468 assays); type: binding; conditions: LATS2; 100 nM; read-out: Percent Control
# Outline: (§1)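 DNA-tagged kinases competed for immobilized biotinylated ligands on streptavidin magnetic beads, with bound kinase quantified by qPCR. VIP152 in DMSO was tested against a DMSO control.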
# human kinome [3] = biological target: human kinome (Homo sapiens, UniProt Q9H2K8); assay: DiscoverX KINOMEscan kinase profiling (468 assays); type: binding; conditions: kinase TAOK3 (Entrez TAOK3); compound concentration 1000 nM; read-out: Percent Control
# Outline: as §1
# human kinome [4] = biological target: human kinome (Homo sapiens, UniProt P36888, N841I); assay: DiscoverX KINOMEscan kinase profiling (468 assays); type: binding; conditions: FLT3(N841I); 100 nM; read-out: Percent Control
# Outline: as §1
# human kinome [5] = biological target: human kinome (Homo sapiens, UniProt P36894); assay: DiscoverX KINOMEscan kinase profiling (468 assays); type: binding; conditions: BMPR1A; 100 nM; read-out: Percent Control
# Outline: as §1
# human kinome [6] = biological target: human kinome (Homo sapiens, UniProt Q9BUB5); assay: DiscoverX KINOMEscan kinase profiling (468 assays); type: binding; conditions: MKNK1; 100 nM; read-out: Percent Control
# Outline: as §1
# human kinome [7] = biological target: human kinome (Homo sapiens, UniProt Q52WX2); assay: DiscoverX KINOMEscan kinase profiling (468 assays); type: binding; conditions: kinase SBK1 (Entrez SBK1); compound concentration 1000 nM; read-out: Percent Control
# Outline: as §1
# human kinome [8] = biological target: human kinome (Homo sapiens, UniProt Q9Y6E0); assay: DiscoverX KINOMEscan kinase profiling (468 assays); type: binding; conditions: MST3 (Entrez STK24); 100 nM; read-out: Percent Control
# Outline: as §1
# human kinome [9] = biological target: human kinome (Homo sapiens, UniProt Q9H093); assay: DiscoverX KINOMEscan kinase profiling (468 assays); type: binding; conditions: kinase SNARK (Entrez NUAK2); compound concentration 1000 nM; read-out: Percent Control
# Outline: as §1
# human kinome [10] = biological target: human kinome (Homo sapiens, UniProt Q13153); assay: DiscoverX KINOMEscan kinase profiling (468 assays); type: binding; conditions: read-out: Percent Control
# Chain of human kinome (Homo sapiens, UniProt Q13153) (Q13153 whole entry): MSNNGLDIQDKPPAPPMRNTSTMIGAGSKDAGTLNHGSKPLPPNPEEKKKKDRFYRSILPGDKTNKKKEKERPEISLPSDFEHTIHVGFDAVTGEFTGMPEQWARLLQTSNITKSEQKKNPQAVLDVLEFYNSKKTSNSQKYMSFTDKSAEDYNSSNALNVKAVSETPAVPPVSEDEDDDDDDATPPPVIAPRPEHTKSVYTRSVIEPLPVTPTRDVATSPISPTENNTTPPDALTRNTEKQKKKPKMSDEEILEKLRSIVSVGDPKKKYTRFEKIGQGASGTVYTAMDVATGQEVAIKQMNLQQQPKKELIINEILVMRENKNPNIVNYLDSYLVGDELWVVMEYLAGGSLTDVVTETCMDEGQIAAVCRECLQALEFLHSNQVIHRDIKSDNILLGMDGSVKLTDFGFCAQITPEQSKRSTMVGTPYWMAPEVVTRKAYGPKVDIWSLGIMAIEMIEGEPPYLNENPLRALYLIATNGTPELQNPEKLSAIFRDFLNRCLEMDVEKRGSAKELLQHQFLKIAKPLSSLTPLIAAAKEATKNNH
# Outline: as §1
# human kinome [11] = biological target: human kinome (Homo sapiens, UniProt Q9UM73, L1196M); assay: DiscoverX KINOMEscan kinase profiling (468 assays); type: binding; conditions: ALK(L1196M); 100 nM; read-out: Percent Control
# Chain of human kinome (Homo sapiens, UniProt Q9UM73, L1196M) (Q9UM73 19-1620 L1196M): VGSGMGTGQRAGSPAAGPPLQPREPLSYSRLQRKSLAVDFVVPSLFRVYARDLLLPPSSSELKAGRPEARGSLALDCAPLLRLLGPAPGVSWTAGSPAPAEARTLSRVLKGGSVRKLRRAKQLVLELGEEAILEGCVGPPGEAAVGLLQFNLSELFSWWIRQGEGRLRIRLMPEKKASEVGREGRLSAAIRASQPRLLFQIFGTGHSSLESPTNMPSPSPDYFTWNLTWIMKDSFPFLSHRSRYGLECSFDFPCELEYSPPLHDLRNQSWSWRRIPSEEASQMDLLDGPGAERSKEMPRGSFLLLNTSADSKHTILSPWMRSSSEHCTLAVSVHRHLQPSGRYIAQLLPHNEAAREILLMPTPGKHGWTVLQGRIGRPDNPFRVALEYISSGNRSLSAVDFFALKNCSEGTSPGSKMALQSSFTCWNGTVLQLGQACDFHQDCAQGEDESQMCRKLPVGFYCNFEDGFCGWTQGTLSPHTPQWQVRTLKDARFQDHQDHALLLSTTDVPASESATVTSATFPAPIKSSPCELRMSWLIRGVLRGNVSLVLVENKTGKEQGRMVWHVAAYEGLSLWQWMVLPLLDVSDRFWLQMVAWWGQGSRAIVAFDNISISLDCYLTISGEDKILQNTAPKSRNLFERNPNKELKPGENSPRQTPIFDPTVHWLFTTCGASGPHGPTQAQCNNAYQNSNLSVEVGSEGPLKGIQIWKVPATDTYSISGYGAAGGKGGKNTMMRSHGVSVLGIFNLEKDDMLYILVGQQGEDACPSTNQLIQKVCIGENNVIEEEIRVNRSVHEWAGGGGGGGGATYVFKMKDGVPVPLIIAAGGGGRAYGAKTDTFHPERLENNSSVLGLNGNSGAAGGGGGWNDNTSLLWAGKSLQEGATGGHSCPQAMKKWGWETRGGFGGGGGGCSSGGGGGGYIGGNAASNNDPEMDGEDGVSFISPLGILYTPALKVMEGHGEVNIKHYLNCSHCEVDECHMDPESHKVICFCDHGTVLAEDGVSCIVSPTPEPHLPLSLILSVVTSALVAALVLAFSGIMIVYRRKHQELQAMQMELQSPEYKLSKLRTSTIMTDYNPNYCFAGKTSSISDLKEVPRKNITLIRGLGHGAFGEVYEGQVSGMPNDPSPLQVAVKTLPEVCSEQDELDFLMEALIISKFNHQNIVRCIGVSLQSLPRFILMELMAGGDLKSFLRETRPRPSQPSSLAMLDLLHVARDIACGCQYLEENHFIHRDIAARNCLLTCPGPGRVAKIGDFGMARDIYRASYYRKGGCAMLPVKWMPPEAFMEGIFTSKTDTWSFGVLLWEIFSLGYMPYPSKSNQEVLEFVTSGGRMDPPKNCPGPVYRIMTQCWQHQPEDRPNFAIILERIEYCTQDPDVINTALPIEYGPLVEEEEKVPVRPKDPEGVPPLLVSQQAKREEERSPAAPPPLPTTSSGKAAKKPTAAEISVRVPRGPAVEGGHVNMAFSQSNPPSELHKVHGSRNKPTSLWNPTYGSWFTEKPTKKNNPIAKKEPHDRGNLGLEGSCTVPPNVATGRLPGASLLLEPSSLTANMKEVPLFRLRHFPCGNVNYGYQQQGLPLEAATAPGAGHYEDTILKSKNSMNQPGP
# Outline: as §1
# human kinome [12] = biological target: human kinome (Homo sapiens, UniProt P07949, V804M); assay: DiscoverX KINOMEscan kinase profiling (468 assays); type: binding; conditions: kinase RET(V804M) (Entrez RET); compound concentration 1000 nM; read-out: Percent Control
# Outline: as §1
# human kinome [13] = biological target: human kinome (Homo sapiens, UniProt Q9UBE8); assay: DiscoverX KINOMEscan kinase profiling (468 assays); type: binding; conditions: read-out: Percent Control
# Chain of human kinome (Homo sapiens, UniProt Q9UBE8) (Q9UBE8 whole entry): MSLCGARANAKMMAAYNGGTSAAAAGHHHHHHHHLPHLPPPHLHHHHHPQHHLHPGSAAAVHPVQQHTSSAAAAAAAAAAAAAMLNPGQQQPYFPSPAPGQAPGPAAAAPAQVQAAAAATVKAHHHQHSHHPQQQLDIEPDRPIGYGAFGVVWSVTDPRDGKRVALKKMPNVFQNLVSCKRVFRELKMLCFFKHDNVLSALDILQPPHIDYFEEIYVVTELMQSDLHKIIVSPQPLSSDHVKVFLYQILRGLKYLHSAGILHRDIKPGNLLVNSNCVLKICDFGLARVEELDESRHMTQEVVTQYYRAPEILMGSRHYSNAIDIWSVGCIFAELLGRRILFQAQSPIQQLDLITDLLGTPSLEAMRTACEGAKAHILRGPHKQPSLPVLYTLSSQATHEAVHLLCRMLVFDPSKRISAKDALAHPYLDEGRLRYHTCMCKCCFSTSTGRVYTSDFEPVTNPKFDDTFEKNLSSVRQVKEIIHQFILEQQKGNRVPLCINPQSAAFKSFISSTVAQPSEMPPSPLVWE
# Outline: as §1
# human kinome [14] = biological target: human kinome (Homo sapiens, UniProt P46734); assay: DiscoverX KINOMEscan kinase profiling (468 assays); type: binding; conditions: MEK3 (Entrez MAP2K3); 100 nM; read-out: Percent Control
# Outline: as §1
# human kinome [15] = biological target: human kinome (Homo sapiens, UniProt P78362); assay: DiscoverX KINOMEscan kinase profiling (468 assays); type: binding; conditions: kinase SRPK2 (Entrez SRPK2); compound concentration 1000 nM; read-out: Percent Control
# Outline: as §1
# human kinome [16] = biological target: human kinome (Homo sapiens, UniProt Q00535); assay: DiscoverX KINOMEscan kinase profiling (468 assays); type: binding; conditions: CDK5; 100 nM; read-out: Percent Control
# Outline: as §1
# human kinome [17] = biological target: human kinome (Homo sapiens, UniProt O75116); assay: DiscoverX KINOMEscan kinase profiling (468 assays); type: binding; conditions: kinase ROCK2 (Entrez ROCK2); compound concentration 1000 nM; read-out: Percent Control
# Outline: as §1
# human kinome [18] = biological target: human kinome (Homo sapiens, UniProt Q02779); assay: DiscoverX KINOMEscan kinase profiling (468 assays); type: binding; conditions: MLK2 (Entrez MAP3K10); 100 nM; read-out: Percent Control
# Outline: as §1
# human kinome [19] = biological target: human kinome (Homo sapiens, UniProt Q8WXR4); assay: DiscoverX KINOMEscan kinase profiling (468 assays); type: binding; conditions: read-out: Percent Control
# Chain of human kinome (Homo sapiens, UniProt Q8WXR4) (Q8WXR4 whole entry): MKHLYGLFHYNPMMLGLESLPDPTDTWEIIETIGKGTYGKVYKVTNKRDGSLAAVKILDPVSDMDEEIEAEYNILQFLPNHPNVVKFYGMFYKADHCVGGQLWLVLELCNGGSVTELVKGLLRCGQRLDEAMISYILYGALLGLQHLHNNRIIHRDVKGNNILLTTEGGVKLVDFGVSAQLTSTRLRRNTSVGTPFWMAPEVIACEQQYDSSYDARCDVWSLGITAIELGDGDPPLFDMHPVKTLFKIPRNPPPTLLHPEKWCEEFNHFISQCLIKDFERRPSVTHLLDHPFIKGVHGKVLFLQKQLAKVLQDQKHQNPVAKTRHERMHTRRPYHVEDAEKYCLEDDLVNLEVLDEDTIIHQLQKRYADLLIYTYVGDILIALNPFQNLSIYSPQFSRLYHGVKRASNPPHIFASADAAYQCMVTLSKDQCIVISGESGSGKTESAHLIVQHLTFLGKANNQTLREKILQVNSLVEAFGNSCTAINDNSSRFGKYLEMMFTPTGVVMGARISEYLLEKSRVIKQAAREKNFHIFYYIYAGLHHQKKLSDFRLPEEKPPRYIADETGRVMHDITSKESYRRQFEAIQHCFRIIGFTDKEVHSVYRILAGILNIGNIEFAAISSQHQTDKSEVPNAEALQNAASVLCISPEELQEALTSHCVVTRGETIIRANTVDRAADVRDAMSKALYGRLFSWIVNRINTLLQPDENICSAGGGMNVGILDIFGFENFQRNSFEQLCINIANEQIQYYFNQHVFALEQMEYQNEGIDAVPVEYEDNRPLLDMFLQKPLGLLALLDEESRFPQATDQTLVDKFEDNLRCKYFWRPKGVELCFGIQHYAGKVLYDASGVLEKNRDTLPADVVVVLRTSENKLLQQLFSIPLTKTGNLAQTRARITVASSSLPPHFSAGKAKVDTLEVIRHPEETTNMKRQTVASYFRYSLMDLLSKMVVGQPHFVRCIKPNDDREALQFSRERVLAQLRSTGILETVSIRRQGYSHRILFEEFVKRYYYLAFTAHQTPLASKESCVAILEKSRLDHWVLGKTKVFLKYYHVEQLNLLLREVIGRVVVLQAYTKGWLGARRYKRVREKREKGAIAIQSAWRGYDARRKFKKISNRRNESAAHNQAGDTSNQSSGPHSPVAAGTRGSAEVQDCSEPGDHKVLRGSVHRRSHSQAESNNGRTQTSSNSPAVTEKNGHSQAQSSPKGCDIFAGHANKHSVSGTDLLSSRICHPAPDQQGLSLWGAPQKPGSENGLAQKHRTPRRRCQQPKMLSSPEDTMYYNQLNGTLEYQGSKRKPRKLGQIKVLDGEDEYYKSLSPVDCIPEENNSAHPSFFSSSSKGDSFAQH
# Outline: as §1
# human kinome [20] = biological target: human kinome (Homo sapiens, UniProt Q13976); assay: DiscoverX KINOMEscan kinase profiling (468 assays); type: binding; conditions: read-out: Percent Control
# Chain of human kinome (Homo sapiens, UniProt Q13976) (Q13976 whole entry): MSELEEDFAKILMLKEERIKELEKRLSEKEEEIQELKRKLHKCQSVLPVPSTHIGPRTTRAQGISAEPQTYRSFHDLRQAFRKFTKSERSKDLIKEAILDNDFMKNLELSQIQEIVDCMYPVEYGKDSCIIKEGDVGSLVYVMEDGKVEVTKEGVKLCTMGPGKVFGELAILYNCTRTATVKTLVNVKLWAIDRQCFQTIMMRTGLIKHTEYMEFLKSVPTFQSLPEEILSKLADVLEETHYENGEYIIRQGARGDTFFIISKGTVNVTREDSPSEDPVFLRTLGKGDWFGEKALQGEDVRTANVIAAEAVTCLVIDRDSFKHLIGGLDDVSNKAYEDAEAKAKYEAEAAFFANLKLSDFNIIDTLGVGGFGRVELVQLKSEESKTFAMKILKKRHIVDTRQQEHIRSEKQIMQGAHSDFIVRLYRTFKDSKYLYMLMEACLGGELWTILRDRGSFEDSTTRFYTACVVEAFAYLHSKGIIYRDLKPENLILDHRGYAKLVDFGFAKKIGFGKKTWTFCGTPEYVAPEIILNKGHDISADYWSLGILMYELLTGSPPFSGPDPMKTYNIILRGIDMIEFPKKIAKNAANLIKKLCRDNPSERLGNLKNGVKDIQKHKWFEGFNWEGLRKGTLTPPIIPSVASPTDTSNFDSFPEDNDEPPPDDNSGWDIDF
# Outline: as §1
# human kinome [21] = biological target: human kinome (Homo sapiens, UniProt P57059); assay: DiscoverX KINOMEscan kinase profiling (468 assays); type: binding; conditions: kinase SIK (Entrez SIK1); compound concentration 1000 nM; read-out: Percent Control
# Outline: as §1
# MST4 = MST4 (Homo sapiens, UniProt Q9P289); assay: KINOMEscan: MST4; type: binding; conditions: 1000 nM, read-out: Percent Control
# [22] = biological target: RSK3(Kin.Dom.1-N-terminal) (Homo sapiens, UniProt Q15349); assay: KINOMEscan: RSK3(Kin.Dom.1-N-terminal); type: binding; conditions: 100 nM, read-out: Percent Control
# Interleukin IL-1 = Interleukin IL-1 (Mus musculus, UniProt P13504); assay: Eurofins Diversity Panel; type: binding; conditions: Conc. 10 μM
# Glutamate, NMDA, Glycine = Glutamate, NMDA, Glycine (Rattus norvegicus, UniProt P35439); assay: Eurofins Diversity Panel; type: binding; conditions: Conc. 10 μM
compound,measurement,setting,value
COc1cc(F)ccc1-c1cc(Nc2cc(CS(C)(=N)=O)ccn2)ncc1F (centres unmarked) [VIP152],remaining binding at 1 µM,CIT,43%
same,remaining binding at 0.1 µM,ULK2,100%
same,apoptosis and stromal protection,[1],induce significant apoptosis after 24 h and overcome stromal protection
same,inhibition at 10 µM,Adenosine A2A,22%
same,remaining binding at 1 µM,MAP4K4,44%
same,remaining binding at 1 µM,FES,87%
same,remaining binding at 1 µM,PFPK5(P.falciparum),99%
same,remaining binding at 0.1 µM,human kinome [2],99%
same,remaining binding at 1 µM,human kinome [3],57%
same,remaining binding at 0.1 µM,human kinome [4],66%
same,remaining binding at 0.1 µM,human kinome [5],100%
same,remaining binding at 0.1 µM,human kinome [6],94%
same,remaining binding at 1 µM,human kinome [7],100%
same,remaining binding at 0.1 µM,human kinome [8],100%
same,remaining binding at 1 µM,human kinome [9],78%
same,remaining binding at 0.1 µM,"human kinome [10]; PAK1, 100 nM",100%
same,remaining binding at 1 µM,"human kinome [10]; kinase PAK1 (Entrez PAK1), compound concentration 1000 nM",100%
same,remaining binding at 0.1 µM,human kinome [11],100%
same,remaining binding at 1 µM,human kinome [12],92%
same,remaining binding at 0.1 µM,"human kinome [13]; NLK, 100 nM",100%
same,remaining binding at 1 µM,"human kinome [13]; kinase NLK (Entrez NLK), compound concentration 1000 nM",59%
same,remaining binding at 0.1 µM,human kinome [14],100%
same,remaining binding at 1 µM,human kinome [15],89%
same,remaining binding at 0.1 µM,human kinome [16],100%
same,remaining binding at 1 µM,human kinome [17],87%
same,remaining binding at 0.1 µM,human kinome [18],100%
same,remaining binding at 0.1 µM,"human kinome [19]; MYO3B, 100 nM",100%
same,remaining binding at 1 µM,"human kinome [19]; kinase MYO3B (Entrez MYO3B), compound concentration 1000 nM",68%
same,remaining binding at 0.1 µM,"human kinome [20]; PRKG1, 100 nM",100%
same,remaining binding at 1 µM,"human kinome [20]; kinase PRKG1 (Entrez PRKG1), compound concentration 1000 nM",91%
same,remaining binding at 1 µM,human kinome [21],88%
same,remaining binding at 1 µM,MST4,89%
same,remaining binding at 0.1 µM,[22],100%
same,inhibition at 10 µM,Interleukin IL-1,-5%
same,inhibition at 10 µM,"Glutamate, NMDA, Glycine",12%
